Values belong to the compound of their own block, whether it stands above or below them.
Key:
[1] = target: T1, intracellular kinase domain of human IGF-1R (GST fusion protein) (Homo sapiens, UniProt P08069); assay: In vitro IGF-1R kinase assay (HTRF); assay type: biochemical; conditions: ATP 20 μM, IGFRK 0.25 nM
T1 construct: IGFRK and IRK enzyme used for the assay was intracellular kinase domain of human IGF-1R; GST; made in house

[2] = test system: A673 (Ewing's Sarcoma) cancer cell line; assay: Anti-proliferative assay (MTS / CCK-8); assay type: cell-based; conditions: for anti-proliferative activity as compared to compound 999: Ewing's Sarcoma cell line; for IC50: Homo sapiens, A673 (Ewing's Sarcoma), 72 hours, 100 ng/mL IGF, read-out: Anti-proliferation IC50
Method: Anti-proliferative potential of compounds was tested using various cell lines (details provided in Table 2) by MTS (Promega, Cat # G1111), a tetrazolium compound ((3-(4,5-dimethylthiazol-2-yl)-5-(3-carboxymethoxyphenyl)-2-(4-sulphophenyl)-2Htetrazolium, inner salt; MTS) and Cell Counting kit-8 (CCK-8 a Dojindo's highly watersoluble tetrazolium salt of WST-8 [2-(2-methoxy-4-nitrophenyl)-3-(4-nitrophenyl)-5-(2,4-disulfophenyl)-2H-tetrazolium, monosodium salt]). MTS is a colorimetric assay for determining the number of viable cells in proliferation, cytotoxicity or chemosensitivity assays. This is used with an electron coupling reagent PMS (Phenazine methosulfate). MTS is bioreduced by cells into a formazan that is soluble in tissue culture medium. The absorbance of the formazan at 490 nm can be measured directly from 96 well assay plates without additional processing. Dehydrogenase enzymes found in metabolically active cells accomplish the conversion of MTS into the aqueous soluble formazan. The quantity of formazan product is directly proportional to the number of living cells in culture. In CCK-8, WST-8 is reduced by dehydrogenases in cells to give a yellow colored product formazan, which is measured at 450 nm.
For experimental purposes, cells were seeded at a density of 3000-5000 cells per well in 180 μL/well volume in transparent 96 well tissue culture plate (NUNC, USA) and incubated overnight at 37° C., 5% CO2. Next day before adding compound the medium was replaced and 180 μL, of fresh medium added with the 100 ng/mL IGF without FCS followed by addition of 20 μL of 10× compound (10 mM stock made in DMSO and then further dilutions were made in medium, final DMSO concentration should not exceed 0.5%) and incubated for 72 hours in humidified 5% CO2 incubator at 37±1° C. After incubation medium was replaced with 200 μL of medium containing 20 μL MTS reagent per well. Plates were incubated for 3-4 hours and absorbance was measured at 490 nm on Spectrophotometer (SpectraMax, Molecular Devices). Percentage cytotoxicity and IC50 was calculated using SoftMax software. CCK-8 was used for suspension cell lines. Cell seeding and compound addition was done on same day. Following the incubation, 10 μL of CCK-8 solution was added in each well. After 4 hour incubation, the absorbance was determined at 450 nm using Spectrophotometer (SpectraMax, Molecular Devices). In every experiment, each condition was run in triplicate wells.

[3] = Oral absorption in Swiss mice; assay type: in vivo; conditions: 10 mg/kg p.o.; for Cmax / half-life / AUC(0-inf): male, mouse, plasma, po; for AUC(0-inf): read-out: AUC0-infinity
Method: Oral absorption of different compounds was ascertained in Swiss mice. The procedure followed was as detailed below:
Species: Swiss mice, overnight fasted state
Sex and weight: Male, in the weight range of 25-30 g
Number of animals: 18 animals divided into six groups (n=3) and bled as follows:
Formulation: Compound suspended in 0.5% carboxymethylcellulose or 0.25% methylcellulose
Blood (250 μL) is collected from the retro-orbital sinus at designated time points from each mouse using heparinized bleeding capillaries into micro-centrifuge tubes containing 5 μL EDTA (200 mM) as anticoagulant. Plasma is separated by centrifugation at 10000 rpm for 5 min and samples stored at −70° C. until bioanalysis.
On the day of analysis, plasma samples are thawed at room temperature. An aliquot (100 μL) of each plasma sample is spiked individually with 10 μL of internal standard. The samples are then vortexed for 10 seconds followed by addition of 1 mL of extraction solvent and vortexed for 5 minutes. The samples are then centrifuged at 10000 rpm for 5 minutes at 4° C. Supernatants (800 μL) are removed and transferred to glass tubes and evaporated to dryness under nitrogen. The dried residues are reconstituted using 100 μL of 90:10% v/v acetonitrile:MilliQ water. The reconstituted samples are vortexed, centrifuged and injected into LC-MS/MS for analysis. The calibration curve is prepared in the range of 0.5 to 5000 ng/mL in mouse plasma for quantitation.

[4] = target: T2, CYP3A4 (Homo sapiens, UniProt P08684); assay: CYP inhibition fluorescence assay (rhCYP450, Vivid Invitrogen kit); assay type: in vitro ADME
T2 construct: purchased Invitrogen (Vivid screening kits)
Method: (§1) The % inhibition @ 10 uM data was generated from an rhCYP450/fluorescence assay according to the Vivid Invitrogen screening kits. The compounds were screened against 5 CYP450 (1A2, 2C9, 2C19, 2D6, and 3A4) isoforms. CYP3A4 constitutes 28% of the human hepatic CYP and is responsible for metabolism of 50% of all drugs. In this class of drugs, CYP3A4 is the most important CYP and thus it is highly desirable not to inhibit CYP3A4. The lower the percentage inhibition, the lower the CYP450 inhibitory liability of that specific compound.

[5] = target: T3, CYP2D6 (Homo sapiens, UniProt P10635); assay: as above; assay type: in vitro ADME; conditions: human, read-out: % inhibition @ 10 uM 2D6
T3 construct: purchased Invitrogen (Vivid screening kits)
Method: as §1

T1 sequence (P08069 999-1274 limits assumed): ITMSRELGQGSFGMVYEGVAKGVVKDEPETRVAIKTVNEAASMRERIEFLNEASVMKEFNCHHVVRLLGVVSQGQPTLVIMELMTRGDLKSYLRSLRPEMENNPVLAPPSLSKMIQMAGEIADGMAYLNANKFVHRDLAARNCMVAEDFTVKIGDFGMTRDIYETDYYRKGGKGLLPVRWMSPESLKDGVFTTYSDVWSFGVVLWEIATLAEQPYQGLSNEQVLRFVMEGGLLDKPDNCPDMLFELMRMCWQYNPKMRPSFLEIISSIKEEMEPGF
T2 sequence (P08684 whole entry): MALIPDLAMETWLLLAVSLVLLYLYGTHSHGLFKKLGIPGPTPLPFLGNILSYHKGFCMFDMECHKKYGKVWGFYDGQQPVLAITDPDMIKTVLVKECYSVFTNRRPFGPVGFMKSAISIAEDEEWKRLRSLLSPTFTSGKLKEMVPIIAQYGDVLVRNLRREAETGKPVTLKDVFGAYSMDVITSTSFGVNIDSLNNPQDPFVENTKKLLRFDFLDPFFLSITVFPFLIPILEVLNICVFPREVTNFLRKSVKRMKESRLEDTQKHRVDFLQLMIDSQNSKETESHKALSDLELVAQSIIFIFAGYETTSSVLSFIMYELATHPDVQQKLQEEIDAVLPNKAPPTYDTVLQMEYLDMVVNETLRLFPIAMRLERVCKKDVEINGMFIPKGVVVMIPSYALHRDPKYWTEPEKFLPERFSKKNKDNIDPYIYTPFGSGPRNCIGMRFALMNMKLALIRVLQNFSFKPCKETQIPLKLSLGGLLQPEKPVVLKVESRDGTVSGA
T3 sequence (P10635 whole entry): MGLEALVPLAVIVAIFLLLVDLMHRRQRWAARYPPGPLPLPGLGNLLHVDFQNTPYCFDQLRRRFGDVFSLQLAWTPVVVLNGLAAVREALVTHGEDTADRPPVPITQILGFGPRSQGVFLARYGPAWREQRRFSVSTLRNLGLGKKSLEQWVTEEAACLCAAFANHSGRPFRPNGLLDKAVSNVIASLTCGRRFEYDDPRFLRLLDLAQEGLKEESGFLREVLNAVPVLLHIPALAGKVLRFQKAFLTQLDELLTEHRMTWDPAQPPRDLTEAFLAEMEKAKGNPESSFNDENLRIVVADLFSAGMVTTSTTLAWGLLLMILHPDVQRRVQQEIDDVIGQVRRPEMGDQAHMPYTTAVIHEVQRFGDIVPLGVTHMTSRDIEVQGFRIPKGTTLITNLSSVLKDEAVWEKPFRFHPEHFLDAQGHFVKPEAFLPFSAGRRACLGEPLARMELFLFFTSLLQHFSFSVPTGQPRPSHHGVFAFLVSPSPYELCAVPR

Compound: COc1ccc(-c2cccc(OC[C@@H]3CN(S(=O)(=O)c4c(C(N)=O)[nH]c5ccc(Cl)cc45)CCO3)c2)cn1 [Compound 7, (S)-5-chloro-3-((2-((3-(6-methoxypyridin-3-yl)phenoxy)methyl)morpholino)sulfonyl)-1H-indole-2-carboxamide]
- IC50 [1]: 15.1 nM
- anti-proliferative activity as compared to compound 999 [2]: higher
- IC50 [2]: 0.6 nM
- AUC as compared to compound 999 [3]: higher
- Cmax as compared to compound 999 [3]: higher
- Cmax [3]: 2200 nM
- half-life [3]: 54 min
- AUC(0-inf) [3]: 1940 ng·h/mL

Compound: CCOc1ccc(-c2cccc(OC[C@@H]3CN(S(=O)(=O)c4c(C(N)=O)[nH]c5ccc(Cl)cc45)CCO3)c2)cn1 [Compound 17, (S)-5-chloro-3-((2-((3-(6-ethoxypyridin-3-yl)phenoxy)methyl)morpholino)sulfonyl)-1H-indole-2-carboxamide]
- IC50 [1]: 10 nM
- hepatic CYP3A4 inhibition as compared to compound 999 ([4]; 10 uM): reduced
- inhibition at 10 uM ([4]; human, read-out: % inhibition @ 10 uM 3A4): 2%
- inhibition at 10 uM [5]: 13%

Compound: NC(=O)c1[nH]c2ccc(Cl)cc2c1S(=O)(=O)N1CCO[C@H](COc2ccc(-c3ccncc3)cc2)C1 [Compound 32, (S)-5-chloro-3-((2-((4-(pyridin-4-yl)phenoxy)methyl)morpholino)sulfonyl)-1H-indole-2-carboxamide]
- IC50 [1]: 3.5 nM
- AUC as compared to compound 999 [3]: higher
- Cmax as compared to compound 999 [3]: higher
- Cmax [3]: 2780 nM
- half-life [3]: 168 min
- AUC(0-inf) [3]: 3190 ng·h/mL

Compound: Cc1cc(-c2ccc(OC[C@@H]3CN(S(=O)(=O)c4c(C(N)=O)[nH]c5ccc(Cl)cc45)CCO3)cc2)cc(C)n1 [Compound 82, (S)-5-chloro-3-((2-((4-(2,6-dimethylpyridin-4-yl)phenoxy)methyl)morpholino)sulfonyl)-1H-indole-2-carboxamide]
- IC50 [1]: 13.2 nM

Compound: NC(=O)c1[nH]c2ccc(Cl)cc2c1S(=O)(=O)N1CCO[C@H](COc2ccc(-c3ccnc(Cl)c3)cc2)C1 [Compound 84, (S)-5-chloro-3-((2-((4-(2-chloropyridin-4-yl)phenoxy)methyl)morpholino)sulfonyl)-1H-indole-2-carboxamide]
- IC50 [1]: 18.5 nM
- AUC as compared to compound 999 [3]: higher
- Cmax as compared to compound 999 [3]: higher
- Cmax [3]: 1240 nM
- half-life [3]: 78 min
- AUC(0-inf) [3]: 2200 ng·h/mL

Compound: NC(=O)c1[nH]c2ccc(Cl)cc2c1S(=O)(=O)N1CCO[C@H](COc2cccc(-c3ccnc(Cl)c3)c2)C1 [Compound 85, (S)-5-chloro-3-((2-((3-(2-chloropyridin-4-yl)phenoxy)methyl)morpholino)sulfonyl)-1H-indole-2-carboxamide]
- IC50 [1]: 9.7 nM

Compound: Cc1cc(OC[C@@H]2CN(S(=O)(=O)c3c(C(N)=O)[nH]c4ccc(Cl)cc34)CCO2)ccc1-c1ccc(Cl)nc1 [Compound 88, (S)-5-chloro-3-((2-((4-(6-chloropyridin-3-yl)-3-methylphenoxy)methyl)morpholino)sulfonyl)-1H-indole-2-carboxamide]
- IC50 [1]: 67 nM

Compound: (S)-5-chloro-3-((2-((3′-(dimethylamino)-[1,1′-biphenyl]-3-yl)oxy)methyl)morpholino)sulfonyl)-1H-indole-2-carboxamide [Compound 9]
- IC50 [1]: 220 nM

Compound: (S)-5-chloro-3-((2-((5-(4-methoxyphenyl)pyridin-3-yl)oxy)methyl)morpholino)sulfonyl)-1H-indole-2-carboxamide [Compound 74]
- IC50 [1]: > 1000 nM

Second part, led by results:

- IC50 [1]: 33 nM
- IC50 [2]: 1.8 nM
- AUC as compared to compound 999 [3]: higher
- Cmax as compared to compound 999 [3]: higher
- Cmax [3]: 8560 nM
- half-life [3]: 318 min
- AUC(0-inf) [3]: 10900 ng·h/mL
Compound: NC(=O)c1[nH]c2ccc(Cl)cc2c1S(=O)(=O)N1CCO[C@H](COc2cccc(-c3ccccc3)c2)C1 [Compound 1, (S)-3-((2-(([1,1′-biphenyl]-3-yloxy)methyl)morpholino)sulfonyl)-5-chloro-1H-indole-2-carboxamide]
- anti-proliferative activity as compared to compound 999 [2]: higher

- IC50 [1]: 31.2 nM
- AUC as compared to compound 999 [3]: higher
- Cmax as compared to compound 999 [3]: higher
- Cmax [3]: 2980 nM
- half-life [3]: 276 min
- AUC(0-inf) [3]: 1960 ng·h/mL
Compound: NC(=O)c1[nH]c2ccc(Cl)cc2c1S(=O)(=O)N1CCO[C@H](COc2cccc(-c3cccnc3F)c2)C1 [Compound 3, (S)-5-chloro-3-((2-((3-(2-fluoropyridin-3-yl)phenoxy)methyl)morpholino)sulfonyl)-1H-indole-2-carboxamide]

- IC50 [1]: > 1000 nM
Compound: NC(=O)c1[nH]c2ccc(Cl)cc2c1S(=O)(=O)N1CCO[C@H](COc2ccc(-c3ccccc3)cn2)C1 [Compound 81, (S)-5-chloro-3-((2-(((5-phenylpyridin-2-yl)oxy)methyl)morpholino)sulfonyl)-1H-indole-2-carboxamide]

- IC50 [1]: 97 nM
Compound: NC(=O)c1[nH]c2ccc(Cl)cc2c1S(=O)(=O)N1CCO[C@H](COc2ccc(-c3ccccc3Cl)cc2)C1 [Compound 83, (S)-5-chloro-3-((2-(((2′-chloro-[1,1′-biphenyl]-4-yl)oxy)methyl)morpholino)sulfonyl)-1H-indole-2-carboxamide]

- IC50 [1]: 4.9 nM
Compound: NC(=O)c1[nH]c2ccc(Cl)cc2c1S(=O)(=O)N1CCO[C@H](COc2cccc(-c3ccc(Cl)nc3)c2)C1 [Compound 86, (S)-5-chloro-3-((2-((3-(6-chloropyridin-3-yl)phenoxy)methyl)morpholino)sulfonyl)-1H-indole-2-carboxamide]

- IC50 [1]: 136 nM
Compound: NC(=O)c1[nH]c2ccc(Cl)cc2c1S(=O)(=O)N1CCO[C@H](COc2cc3ccccc3nn2)C1 [Compound 89, (S)-5-chloro-3-((2-((cinnolin-3-yloxy)methyl)morpholino)sulfonyl)-1H-indole-2-carboxamide]

- IC50 [1]: > 100 nM
Compound: NC(=O)c1[nH]c2ccc(Cl)cc2c1S(=O)(=O)N1CCO[C@H](COc2cccc3cccnc23)C1 [Compound 90, (S)-5-chloro-3-((2-((quinolin-8-yloxy)methyl)morpholino)sulfonyl)-1H-indole-2-carboxamide]

- IC50 [1]: > 100 nM
Compound: NC(=O)c1[nH]c2ccc(Cl)cc2c1S(=O)(=O)N1CCO[C@H](COc2ncnc3ccccc23)C1 [Compound 91, (S)-5-chloro-3-((2-((quinazolin-4-yloxy)methyl)morpholino)sulfonyl)-1H-indole-2-carboxamide]

- IC50 [1]: > 100 nM
Compound: Cn1nc(-c2ccccc2)cc1OC[C@@H]1CN(S(=O)(=O)c2c(C(N)=O)[nH]c3ccc(Cl)cc23)CCO1 [Compound 92, (S)-5-chloro-3-((2-(((1-methyl-3-phenyl-1H-pyrazol-5-yl)oxy)methyl)morpholino)sulfonyl)-1H-indole-2-carboxamide]

From patent publication US20150119394A1, “Insulin-Like Growth Factor-1 Receptor Inhibitors” (Merck Sharp & Dohme Corp., priority 2012, published 2015)
